Consider 3 compounds from patent US9376449B2, “Indole carboxamide derivative” (Astellas Pharma Inc., priority 2012, dated 2016).

A short description of series [1]: CNS penetration: CSF to plasma unbound concentration ratio in rat. In kind it is in vivo. The note with it: CSF and plasma (unbound), iv; for Kp uu at 0.25 h: 15 minutes after intravenous administration, CCSF/Cplasma,u, read-out: Kp,uu,CSF,iv15min. Here is the method:
Test Example 4 Test for Evaluating CNS Penetration
(1) Measurement of Unbound Fraction (fp) in Rat Plasma
A test compound (100 μg/mL, 50% acetonitrile solution) at 1% (v/v) with respect to the amount of the plasma was added to rat plasma, and dispensed to a sample for a supernatant and a sample for the plasma. The sample for a supernatant was ultracentrifuged at 436,000×g and 37° C. for 140 minutes, and the sample for the plasma was incubated at 37° C. for 140 minutes.
After 140 minutes, the sample for a supernatant after the ultracentrifugation and the sample for the plasma were taken, and mixed with the blank plasma or the blank supernatant, respectively. Acetonitrile including an internal standard material was added to each of the samples, and after the centrifugation at 2150×g and 4° C. for 10 minutes the supernatant was injected into LC-MS/MS.
The unbound fraction in the plasma was calculated by the following equation.
(wherein fp: an unbound fraction in the plasma and D: a dilution rate of the plasma. fu,app=peak area ratio of supernatant sample/peak area ratio of the plasma sample, and peak area ratio=peak area of test compound/peak area of internal standard material).
(2) The CSF to Plasma Unbound Concentration Ratio in Rat
A 50% acetonitrile solution and an acetonitrile including internal standard material was added to the collected plasma or CSF. After centrifugation at 4° C. and 2150×g for 10 minutes, the supernatant was injected into LC-MS/MS, and the total concentration of the test compound in the plasma (Cplasma,t) and the concentration of the test compound in CSF (CCSF) were obtained. The unbound concentration in the plasma (Cplasma,u) of the test compound and the CSF-to plasma unbound concentration ratio (Kp,uu,CSF) of the test compound was calculated by the following equation.
(§1) Ex represents Example No. of the test compound.

A further series deals with human MT1 receptor (Homo sapiens, UniProt P48039). The series is described as follows: Activation of human MT1 receptor in receptor-expressing HEK293 cells (intracellular Ca2+, FLIPR). The settings on record: for Emax: HEK293, maximum reaction by ramelteon taken as 100%, solvent only 0%, read-out: MT1 Emax (%); for EC50: HEK293 cells stably expressing human MT1 and Gq/i chimeric G-protein, intracellular Ca2+ by FLIPR. In kind it is cell-based. Here is the method: (1) Isolation of Human MT1 and MT2 Receptor and Construction of Expression Vector
A human MT1 receptor gene (GenBank Accession No.: NM_005958.3) and a human MT2 receptor gene (GenBank Accession No.: NM_005959.3) were each introduced into an expression vector pCDNA3.1/Zeo (Invitrogen, Inc.).
(2) Construction of Cells Stably Expressing Human MT1 and Human MT2 Receptor
The introduction was carried out according to the attached instructions, using a Lipofectoamine (registered trademark) 2000 Reagent (Invitrogen, Inc.). Zeocin and hygromycin were used as a resistant drug, and the cell was incubated for 15 days at 0.02 mg/mL and 0.05 mg/mL, respectively, thereby acquiring drug-resistant clones.
(3) Measurement of Intracellular Ca^2+ Concentration by FLIPR (Registered Trademark)
The respective stably expressing cells were dispensed into 96-well poly-D-lysine-coated plates (Falcon Co.) to 40,000 cells/well the day before the experiment, and incubated overnight in a DMEM (Invitrogen, Inc.) medium including 10% FBS at 37° C. and 5% CO2. The medium was replaced with a loading buffer (washing solution (Hank's balanced salt solution (HBSS), 20 mM HEPES-NaOH, 2.5 mM probenecid) including Fluo-4AM (Dojindo Co.) at 4 μM), and incubated for 1 hour at 37° C. and 5% CO2. Thereafter, the cells were washed with a plate washer (ELx405, BIO-TEK Instrument, Inc.) set with the washing solution, and set in an intracellular Ca^2+ concentration measuring systems (FLIPR (registered trademark), Molecular Device Co.). The test compound was dissolved in the washing solution in advance, diluted to a final concentration of −12 to −5 log M, set in a FLIPR (registered trademark) device together with the cells, and added to the cells in the device. At this time, a change in the intracellular Ca^2+ concentrations was measured.
as §1

A further series relates to urethral pressure. The experiment in a line: Effect of test compound on urethral pressure in anesthetized rats. In kind it is in vivo, rat. The note with it: for Increment value in the urethra pressures (mmHg): 0.1 mg/kg intravenously, urethane-anesthetized SD female rats; for urethra pressure increasing action: dose of 0.1 mg/kg. The text has this: Test Example 3 Test to Evaluate Effect of Test Compound on Urethral Pressure
It has been reported that an increase in the urethra pressure is useful for the treatment of urinary incontinence, particularly stress urinary incontinence (for example, Drugs, 64, 14, 1503-1516 (2004)). In order to confirm whether the compound of the present invention increases the urethra pressure and thus is useful for the treatment of urinary incontinence, particularly stress urinary incontinence, the following tests were carried out.
SD female rats were anesthetized with urethane and subjected to laparotomy. Then, the bladder apex was incised and a catheter was inserted from the bladder apex. Further, the catheter tip was ligated and fixed to be located in the proximal urethra portion. The catheter was connected to a pressure transducer and an infusion pump. Further, a catheter for administrating the compound was fitted into the femoral vein. Physiological saline was continuously infused into the urethra and the perfusion pressure in the urethra was measured. After the urethral pressure was stabilized, the test compound that had been dissolved in physiological saline, or physiological saline including 5% dimethylacetamide and 0.5% Cremophor was administered intravenously at 0.1 mg/kg, and a change in urethral pressures was measured.
Further, the results of administering an active metabolite of midodrine (ST-1059: purchased from CHEMIZON) (J. Urology, 118, 980-982 (1977)) which is an α1 adrenoceptor agonist and has an effect on stress urinary incontinence in rat doses (0.01 mg/kg) presumed to correspond to the clinical doses are referenced and shown in the Tables below. The increment value in the urethra pressures of ramelteon and the Example compounds of the present invention at the time of administration are shown in Table 4. Ex represents Example No. of the test compound.

In the next series the test system is isolated urethra. The series is described as follows: Isolated urethra contractile action. The arrangement: species or system rat. The settings on record: for activation at 1 µM: test compound at 1 μM, contractile response by 10 μM phenylephrine as 100%, SD female rat urethra, read-out: Isolated urethra contraction (%). Here is the method:
Test Example 2 Isolated Urethra Contractile Action
(1) Evaluation Test on Urethra Contractile Action of Test Compound Using Isolated Urethra
The urethra was isolated from an SD female rat having a body weight of 100 to 500 g. The isolated urethra was incised longitudinally to give a rectangular strip specimen having a width of about 3 mm, which was suspended in the circular muscle direction in 10 mL of a tissue bath filled with a Krebs-Henseleit solution (pH 7.4). The Krebs-Henseleit solution was bubbled with 95% O2 and 5% CO2, and kept at 37° C. The resting tension was set to 0.5 g to record the isometric contraction. After the resting tension was stabilized, contraction was elicited by the addition of 10 μM phenylephrine. After washing and stabilizing, the test compound was added cumulatively to a final concentration of −12 to −5 log M to measure a contractile response. By taking the contractile response by 10 μM phenylephrine as 100%, the ratio of the contractile response in the concentration of the test compound at 1 μM was calculated.
as §1

Each structure is given as a SMILES string.

Sequence of human MT1 receptor (P48039 whole entry): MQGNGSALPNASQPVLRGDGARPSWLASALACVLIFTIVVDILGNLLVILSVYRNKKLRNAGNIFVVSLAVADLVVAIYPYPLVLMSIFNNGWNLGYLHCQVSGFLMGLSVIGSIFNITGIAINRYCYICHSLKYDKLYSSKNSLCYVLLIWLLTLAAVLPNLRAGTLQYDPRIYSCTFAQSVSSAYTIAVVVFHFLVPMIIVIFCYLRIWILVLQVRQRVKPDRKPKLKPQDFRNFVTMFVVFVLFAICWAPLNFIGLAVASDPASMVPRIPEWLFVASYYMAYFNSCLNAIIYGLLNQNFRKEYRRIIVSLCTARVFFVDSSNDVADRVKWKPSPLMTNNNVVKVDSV

On to `CCC(=O)NCC[C@@H]1CCc2ccc3c(c21)CCO3` [Ramelteon, reference compound], for which the Kp uu at 10 min in series [1] (10 minutes after the intravenous administration) was over 1. Besides, on human MT1 receptor, the Emax was determined as 100% and the EC50 worked out at 0.28 nM. The “increment value in the urethra pressures compared with ST-1059” value in the series with urethral pressure (0.1 mg/kg i.v. versus ST-1059 0.01 mg/kg, in words) was “equal to or more than that of ST-1059”. In the series with urethral pressure, the “Increment value in the urethra pressures (mmHg)” value (“Increment value … (mmHg)” for short) is listed as 11.1 ± 1.7 mmHg. In addition, the urethra contractile action result in the series on isolated urethra (isolated rat urethra, in words) is “good urethra contractile action”. The activation at 1 µM in the series on isolated urethra was determined as 242%.

Consider `CNC(=O)c1[nH]c2ccc(OC)cc2c1CCNC(=O)C(F)F` [Ex 2, 3-{2-[(difluoroacetyl)amino]ethyl}-5-methoxy-N-methyl-1H-indole-2-carboxamide], for which the Kp uu at 0.25 h in series [1] came to 0.11. At human MT1 receptor, the Emax came to 102% and the response was half-maximal at 11 nM (EC50). The “Increment value … (mmHg)” value with urethral pressure came to 10.6 ± 3.5 mmHg. Further, the “urethra pressure increasing action” value in the series with urethral pressure (in words) is on record as “good urethra pressure increasing action”. In addition, in the series on isolated urethra, the activation at 1 µM is 167%.

With `CNC(=O)c1[nH]c2cc(F)c(OC)cc2c1CCNC(C)=O` [Ex 17], the Kp uu at 0.25 h in series [1] turned out to be 0.08. Further, on human MT1 receptor, the Emax came to 86% and the midpoint of the response, the EC50, lay at 20 nM. Besides, the “Increment value … (mmHg)” value in the series with urethral pressure stood at 9.0 ± 1.0 mmHg. The “urethra pressure increasing action” value in the series on urethral pressure (in words) is “good urethra pressure increasing action”. Moreover, the activation at 1 µM in the series on isolated urethra amounted to 132%.
